Here are results for eight compounds from patent US20140315786A1, “USE OF INTRACELLULAR ENZYMES FOR THE RELEASE OF COVALENTLY LINKED BIOACTIVES” (Catabasis Pharmaceuticals, Inc., priority 2011, published 2014).

The subject of one data set is NFκB. Description: NFκB-driven luciferase reporter assay in LPS-challenged RAW 264.7 macrophages. In kind it is cell-based. The settings on record: Mus musculus, RAW264.7; RAW 264.7, LPS 200 ng/mL; linked bioactive; read-out: IC50 in an NFkB assay. How it is done: RAW 264.7 cells transfected with an NFκB-driven luciferase reporter were plated in 96 well plates. Cells were treated with Vehicle (0.1% ethanol) or test compounds for 2 hours. As a positive control for inhibition of NFκB signaling, 6 wells were treated with […]. Cells were then challenged with 200 ng/mL LPS for 3 hours in the presence of test compounds. A subset of wells treated with vehicle remained unstimulated with LPS to determine the floor signal of the assay. NFκB driven luciferase activity was developed by addition of BriteLite luciferase kit (PERKIN ELMER®) and measured using a Victor V plate reader. NFκB activity (luciferase activity) for each treatment was normalized to Vehicle wells treated with LPS (% NFκB Response).
On the technique in general: Reporter assays use an easily measured gene product as a stand-in for the process of interest.

The subject of data set [1] is ApoB secretion in HepG2 cells. In words: ApoB secretion in HepG2 cells (oleate stimulated, ELISA). In kind it is cell-based. The settings on record: Homo sapiens, linked bioactive. The method, then:
HcpG2 cells (ATCC) were seeded at 10,000 cells per well in 96 well plates. After adhering overnight, growth media (10% FBS in DMEM) was removed and cells were serum starved for 24 hours in DMEM containing 0.1% fatty acid free bovine serum albumin (BSA, SIGMA®). Cells were then treated with the compounds. Niacin at 5 mM was used as a positive control. All treatments were performed in triplicate. Simultaneous with compound treatment, ApoB secretion was stimulated with the addition of […] complexed to fatty acid free BSA in a 5:1 molar ratio. Incubation with compounds and oleate was conducted for 24 hours. Media supernatants were removed and ApoB concentrations were measured using ELISA kits (MABTECH AB®). Percent inhibition of ApoB secretion was determined by normalizing data to vehicle treated wells. For a given compound, an IC50 (concentration at which 50% of ApoB secretion is inhibited) can also be determined by using a 4 parameter-fit inhibition curve model (GRAPH PAD PRISM®). In each experiment, cell viability was determined using the ATPlite 1-Step kit (PERKIN ELMER®), such that compound effects due to cytotoxicity could be monitored.
Background: ELISA stands for enzyme-linked immunosorbent assay.

The nature of data set [2]: Rat liver lysate hydrolysis assay (FAAH and thiol reductase promoted cleavage). The data set is classed as in vitro ADME. The method, then:
The rat liver lysate hydrolysis experiment was performed in Eppendorf tubes, by adding the necessary amount of water for the assay first. A 10× buffer solution with final concentrations of HEPES and EDTA of 50 mM and 1 mM respectively was prepared from 500 mM HEPES and 10 mM EDTA in water. Rat liver lysate was removed from −80° C. storage, thawed and centrifuged at 4000 g for 5 min. A volume of the supernatant was transferred to the Eppendorf tube yielding a final concentration in the assay of 3 mg/mL rat liver lysate. The tube was gently inverted to mix the components. The reactions are then place in a 37° C. incubator for 20 min allowing the reaction mixture to reach 37° C. before the reaction was initiated.
To initiate the hydrolysis reaction, the samples were removed from the incubator and the compounds of the invention were added, as a DMSO solution, prepared in a manner to allow for <1% final DMSO concentration and 5 μM final compound concentration. […]
This rat liver lysate hydrolysis assay was used to assess the hydrolysis of bis-fatty acid linked bioactives into individual components. As an illustrative example, the bis-fatty acid cystamine linked bioactive VI-7 was assessed in this rat liver lysate assay. […] The amount of cysteamine that was formed could be quantitated by LC-MS/MS by carrying out an initial derivatization with Ellman's reagent. […] 50 μl of the tissue lysate reaction mixture was transferred to a 1.5 mL eppendorf tube and derivatization of cysteamine was performed with 50 μl 10 mM Ellman's reagent (5,5′ dithio-bis(2-nitrobenzoic acid). Samples were incubated at room temperature for 10 minutes, vortex for 1 minute followed by protein precipitation by addition of 300 μl of acetonitrile containing IS and 0.2% butylated hydroxyanisole (BHA). Supernatant was transferred to a clean LC vial and 10 μl of the sample was injected on LC-MS/MS for the measurement of cysteamine. The concentration of cysteamine was measured by LC-MS/MS. […]

A further data set addresses T1, FAAH-1 (Homo sapiens, UniProt O00519).
T1 construct: expressed in transfected cells; host or cells: COS-7
T1 sequence (O00519 1-579): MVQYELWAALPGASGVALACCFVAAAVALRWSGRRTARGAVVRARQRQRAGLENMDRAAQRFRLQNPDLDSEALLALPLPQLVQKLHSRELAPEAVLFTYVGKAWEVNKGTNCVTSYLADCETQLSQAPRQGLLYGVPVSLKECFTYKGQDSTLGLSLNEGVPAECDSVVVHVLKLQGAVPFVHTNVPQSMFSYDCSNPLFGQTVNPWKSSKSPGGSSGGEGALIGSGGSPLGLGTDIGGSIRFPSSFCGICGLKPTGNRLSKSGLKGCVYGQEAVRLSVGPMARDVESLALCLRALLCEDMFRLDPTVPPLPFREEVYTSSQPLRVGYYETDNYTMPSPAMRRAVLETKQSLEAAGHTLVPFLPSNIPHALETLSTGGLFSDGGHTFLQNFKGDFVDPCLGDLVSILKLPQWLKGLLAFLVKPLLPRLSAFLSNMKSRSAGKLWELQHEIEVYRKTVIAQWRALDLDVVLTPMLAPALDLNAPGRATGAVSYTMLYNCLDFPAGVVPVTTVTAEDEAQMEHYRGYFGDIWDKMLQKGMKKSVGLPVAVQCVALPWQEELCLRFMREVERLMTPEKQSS
Description: Hydrolysis in homogenate of COS-7 cells overexpressed with FAAH-1. The data set is classed as biochemical. The settings on record: 5 μM. The method, then: Hydrolysis experiments using COS-7 cells overexpressed with either FAAH-1 or FAAH-2. […] The next day, cells were transfected, in duplicate, with 10 μg Vector control, flag-FAAH-1 or flag-FAAH-2 plasmids using Lipofectamine 2000 (Invitrogen) according to the manufacturer's protocol. 24 hours post transfection, cells were washed 1× in cold PBS, aspirated dry, and then scraped off the plate in the presence of 0.6 mL reaction buffer (50 mM HEPES, pH 9.0; 1 mM EDTA). Cells were then homogenated using a VWR VDI 12 Adaptable Homogenizer, on ice for 1 minute, and the sample was then clarified by centrifugation at 6,000 g for 5 minutes. The supernatant of this homogenated fraction was then used for FAAH hydrolysis assays. […] Gel densitometry was performed and the % FAAH extracted in each successive lysis conditions was determined according to standard procedures.
The following hydrolysis experiments were performed using COS-7 cells containing overexpressed FAAH-1 or FAAH-2. […] Briefly, the hydrolysis experiments were carried out in Eppendorf tubes using procedures similar to the one described above. […] At time=0, 1, and 3 h, the protein was precipitated with acetonitrile.

Broadly, the IC50 is the concentration at which inhibition is half-maximal. `CC/C=C\C/C=C\C/C=C\C/C=C\C/C=C\C/C=C\CCC(=O)NCCNC(=O)CCC/C=C\C/C=C\C/C=C\C/C=C\C/C=C\CC` [VI-5, (4Z,7Z,10Z,13Z,16Z,19Z)-docosa-4,7,10,13,16,19-hexaenoic acid [2-((5Z,8Z,11Z,14Z,17Z)-icosa-5,8,11,14,17-pentaenoylamino)-ethyl]-amide]: the IC50 with NFκB was found to be 63 µM.

Compound `CC/C=C\C/C=C\C/C=C\C/C=C\C/C=C\C/C=C\CCC(=O)NCCNC(=O)c1cccnc1` [III-2, N-(2-(4Z,7Z,10Z,13Z,16Z,19Z)-docosa-4,7,10,13,16,19-hexaenamidoethyl)nicotinamide] displayed an IC50 in data set [1] of 50 µM.

As to `CC/C=C\C/C=C\C/C=C\C/C=C\C/C=C\C/C=C\CCC(=O)NCCNC(=O)CC/C=C\C/C=C\C/C=C\C/C=C\C/C=C\C/C=C\CC` [VI-6, (4Z,7Z,10Z,13Z,16Z,19Z)-docosa-4,7,10,13,16,19-hexaenoic acid [2-((4Z,7Z,10Z,13Z,16Z,19Z)-docosa-4,7,10,13,16,19-hexaenoylamino)-ethyl]-amide], in the data set with NFκB, the IC50 stood at 68 µM.

Take `CC/C=C\C/C=C\C/C=C\C/C=C\C/C=C\CCCC(=O)NCCNC(=O)c1cccnc1` [III-1, N-(2-(5Z,8Z,11Z,14Z,17Z)-icosa-5,8,11,14,17-pentaenamidoethyl)nicotinamide]: it took 50 µM to reach half-maximal inhibition in data set [1] (IC50).

As to `CC/C=C\C/C=C\C/C=C\C/C=C\C/C=C\C/C=C\CCC(=O)NCCNC(=O)/C=C/C(=O)OC` [IV-1, (E)-methyl 4-(2-(4Z,7Z,10Z,13Z,16Z,19Z)-docosa-4,7,10,13,16,19-hexaenamidoethylamino)-4-oxobut-2-enoate], the IC50 in the data set on NFκB stood at 16 µM.

In data set [1], `CC/C=C\C/C=C\C/C=C\C/C=C\C/C=C\C/C=C\CCC(=O)N1CCN(C(=O)CCC/C=C\C/C=C\C/C=C\C/C=C\C/C=C\CC)CC1` [VI-1, (4Z,7Z,10Z,13Z,16Z,19Z)-1-[4-((5Z,8Z,11Z,14Z,17Z)-icosa-5,8,11,14,17-pentaenoyl)-piperazin-1-yl]-docosa-4,7,10,13,16,19-hexaen-1-one] came in with an IC50 of 10 µM.

On to `CC/C=C\C/C=C\C/C=C\C/C=C\C/C=C\C/C=C\CCC(=O)NCCSSCCNC(=O)CCC/C=C\C/C=C\C/C=C\C/C=C\C/C=C\CC` [VI-7, (4Z,7Z,10Z,13Z,16Z,19Z)-docosa-4,7,10,13,16,19-hexaenoic acid {2-[2-((5Z,8Z,11Z,14Z,17Z)-icosa-5,8,11,14,17-pentaenoylamino)-ethyldisulfanyl]-ethyl}-amide], for which the “hydrolysis in rat liver lysate” value in data set [2] (FIG. 7A, 5 μM compound, 3 mg/mL rat liver lysate, 37° C.) is on record as “time-dependent hydrolysis”. The “formation of cysteamine in rat liver lysate” value in data set [2] (FIG. 7B, absence of the FAAH inhibitor PF-3845) is “time dependent formation of cysteamine”.

In the case of `CC/C=C\C/C=C\C/C=C\C/C=C\C/C=C\C/C=C\CCC(=O)NCCNC(=O)c1ccccc1O` [Compound I-1, N-(2-(4Z,7Z,10Z,13Z,16Z,19Z)-docosa-4,7,10,13,16,19-hexaenamidoethyl)-2-hydroxybenzamide], the IC50 with NFκB lay in the range of 30 to 35 µM. The “hydrolysis (disappearance of compound) in COS-7 cells overexpressed with FAAH-1” value on FAAH-1 (FIG. 9A, absence of any inhibitor, 0-3 h) was “significant hydrolysis”. For the same compound, the “appearance of DHA from compound, FAAH-1” value at FAAH-1 (FIG. 9C, no inhibitor) is “time dependent formation of DHA”.
